Laboratory results from article PMC7319089, “Multi-Component Comparative Pharmacokinetics in Rats After Oral Administration of Fructus aurantii Extract, Naringin, Neohesperidin, and Naringin-Neohesperidin” (Frontiers in Pharmacology, 2020).

Tests used:
[1] = Pharmacokinetics in SD rats after oral administration of FA extract, NA, NHE or NA-NHE (UPLC-MS/MS of plasma, DAS 3.1); format: in vivo, Sprague-Dawley (SD) rats; conditions: for AUC(0-t) / AUC(0-∞) / CL/F / Ka / V1/F / t1/2(Ka) / t1/2α / t1/2β: n = 6
Experimental: The 20 μl of β-glucuronidase and 15 μl of sulfatase were added into 50 μl of plasma sample. After vortexed for 30 s, the mixture was incubated at 37°C for 2 h in a water bath, then placed in ice water for 5 min to terminate the reaction ([Xu et al., 2019]). IS solution (20 µl, 5 μg/ml) and acetonitrile (1.0 ml) were added into the mixture and vortexed for 2 min. […] Rats were randomly divided into the following four groups (6 rats in each group): naringin (NA), neohesperidin (NHE), naringin-neohesperidin (NA-NHE), and FA extract group. The oral administration doses were selected according to the literatures ([Tong et al., 2012]; [Yang et al., 2012]; [Committee of National Pharmacopoeia of RP China, 2015]; [Wang et al., 2018]; [Zhang et al., 2018]; [Chen et al., 2019]), the contents of the five components in FA, and the preliminary experiments. The specific doses were as follows: […] The rats had free access to water during the experiment. The blood samples were then immediately centrifuged at 4,000 rpm for 10 min. The plasma was frozen and stored at −80°C until analysis. The plasma concentration of the studied compounds was determined according to the daily calibration curve.

[2] = parameters: method as in Wang et al., 2018; conditions: after orally administering 30 g/kg FA decoction; ref Wang et al., 2018; cited from earlier work
[3] = SD rats, oral compatibility NA-NHE (naringin 1.85 g/kg and neohesperidin 1.81 g/kg), two-compartment parameters
[4] = SD rats, oral monomer (naringin 1.85 g/kg or neohesperidin 1.81 g/kg), two-compartment parameters
[5] = male SD rats, oral FA extract 10.8 g/kg of the original medicinal material, two-compartment model parameters

AUC(0-t) [1, 3]: 3475.14 ± 714.19 ng·h/mL
AUC(0-∞) [1, 3]: 3557.64 ± 726.84 ng·h/mL
CL/F [1, 3]: 60.5 ± 13.3 mL/min/kg
Ka [1, 3]: 4.40 ± 0.83 h⁻¹
V1/F [1, 3]: 4.37 ± 1.16 L/kg
t1/2(Ka) [1, 3]: 0.57 ± 0.11 h
t1/2α [1, 3]: 3.22 ± 0.42 h
t1/2β [1, 3]: 3.43 ± 0.55 h
AUC(0-t) [1, 4]: 2932.05 ± 625.03 ng·h/mL
AUC(0-∞) [1, 4]: 2988.05 ± 621.39 ng·h/mL
CL/F [1, 4]: 91.5 ± 12.2 mL/min/kg
Ka [1, 4]: 1.64 ± 0.35 h⁻¹
V1/F [1, 4]: 4.58 ± 1.18 L/kg
t1/2(Ka) [1, 4]: 0.96 ± 0.08 h
t1/2α [1, 4]: 4.39 ± 0.47 h
t1/2β [1, 4]: 4.61 ± 0.48 h
AUC(0-t) [1, 5]: 4345.39 ± 704.69 ng·h/mL
AUC(0-∞) [1, 5]: 4421.59 ± 723.98 ng·h/mL
CL/F [1, 5]: 68.2 ± 18.3 mL/min/kg
Ka [1, 5]: 3.17 ± 0.93 h⁻¹
V1/F [1, 5]: 7.17 ± 1.40 L/kg
t1/2(Ka) [1, 5]: 0.26 ± 0.07 h
t1/2α [1, 5]: 3.47 ± 0.51 h
t1/2β [1, 5]: 3.86 ± 0.32 h
Shape of the plasma concentration-time profile ([1]; rats, oral administration, naringin and neohesperidin determined as naringenin and hesperetin): Double-peak phenomenon
SMILES: COc1ccc([C@@H]2CC(=O)c3c(O)cc(O[C@@H]4O[C@H](CO)[C@@H](O)[C@H](O)[C@H]4O[C@@H]4O[C@@H](C)[C@H](O)[C@@H](O)[C@H]4O)cc3O2)cc1O [NHE, neohesperidin]
Detection in rat plasma [2]: could not been detected
